These results are taken from ChEMBL document CHEMBL1221272, “Discovery and structure-activity relationships of a series of pyroglutamic acid amide antagonists of the P2X7 receptor” (Bioorg Med Chem Lett, 2010).

Values after ≈ are worked out from the molar mass of the structure shown. Active and inactive are the calls of the source.

Series [1] deals with T1, P2X purinoceptor 7 (Homo sapiens, UniProt Q99572).
T1 sequence (Q99572 whole entry): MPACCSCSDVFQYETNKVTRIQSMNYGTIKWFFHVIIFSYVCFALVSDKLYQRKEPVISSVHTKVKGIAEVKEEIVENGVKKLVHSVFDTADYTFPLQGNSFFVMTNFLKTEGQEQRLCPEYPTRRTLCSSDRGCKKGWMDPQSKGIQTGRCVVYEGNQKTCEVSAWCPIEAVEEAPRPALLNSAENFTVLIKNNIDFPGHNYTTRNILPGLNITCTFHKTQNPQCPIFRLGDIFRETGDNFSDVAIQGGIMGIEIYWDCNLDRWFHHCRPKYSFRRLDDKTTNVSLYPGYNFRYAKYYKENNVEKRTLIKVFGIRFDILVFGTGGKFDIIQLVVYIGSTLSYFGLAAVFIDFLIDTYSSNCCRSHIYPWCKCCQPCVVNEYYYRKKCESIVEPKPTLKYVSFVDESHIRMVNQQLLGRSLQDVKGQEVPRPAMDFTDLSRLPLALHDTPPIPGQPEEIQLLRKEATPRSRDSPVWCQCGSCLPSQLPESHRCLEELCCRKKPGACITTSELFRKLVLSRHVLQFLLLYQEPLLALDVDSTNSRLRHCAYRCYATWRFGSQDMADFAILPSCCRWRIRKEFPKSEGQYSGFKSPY
In words: Inhibition of human P2X7 receptor by ethidium bromide release assay.

Series [2] relates to Liver microsomes. In words: Intrinsic clearance in rat liver microsome. Format: ADME. On the technique in general: Liver microsomes are vesicles of endoplasmic reticulum, rich in cytochrome P450 enzymes.
Series [3] in a line: Lipophilicity, log D of the compound at pH 7.4. To be noted: buffer. Format: physicochemical.
In series [4] the test system is Rattus norvegicus. In words: Antiallodynic activity in rat chronic constriction injury model assessed as nerve injury-induced allodynia at 20 mg/kg, po bid measured post dose on day 1 of 8 days treatment.
Series [5] relates to Rattus norvegicus. In words: Antiallodynic activity in rat chronic constriction injury model assessed as nerve injury-induced allodynia at 20 mg/kg, po bid measured post dose on day 1 of 8 days treatment. The series is classed as functional, organism-based. Also on record: dose 20 mg/kg.
The nature of series [6]: Oral bioavailability in rat at 3 mg/kg for 1 hrs. Format: ADME, organism-based. To be noted: in vivo.
Series [7] is described as follows: Half life in rat at 1 mg/kg, iv for 1 hrs. Set-up: dose 1 mg/kg, route intravenous. Format: ADME, organism-based. To be noted: in vivo.
Series [8] addresses T2, P2X purinoceptor 7 (Rattus norvegicus, UniProt Q64663).
T2 sequence (Q64663 whole entry): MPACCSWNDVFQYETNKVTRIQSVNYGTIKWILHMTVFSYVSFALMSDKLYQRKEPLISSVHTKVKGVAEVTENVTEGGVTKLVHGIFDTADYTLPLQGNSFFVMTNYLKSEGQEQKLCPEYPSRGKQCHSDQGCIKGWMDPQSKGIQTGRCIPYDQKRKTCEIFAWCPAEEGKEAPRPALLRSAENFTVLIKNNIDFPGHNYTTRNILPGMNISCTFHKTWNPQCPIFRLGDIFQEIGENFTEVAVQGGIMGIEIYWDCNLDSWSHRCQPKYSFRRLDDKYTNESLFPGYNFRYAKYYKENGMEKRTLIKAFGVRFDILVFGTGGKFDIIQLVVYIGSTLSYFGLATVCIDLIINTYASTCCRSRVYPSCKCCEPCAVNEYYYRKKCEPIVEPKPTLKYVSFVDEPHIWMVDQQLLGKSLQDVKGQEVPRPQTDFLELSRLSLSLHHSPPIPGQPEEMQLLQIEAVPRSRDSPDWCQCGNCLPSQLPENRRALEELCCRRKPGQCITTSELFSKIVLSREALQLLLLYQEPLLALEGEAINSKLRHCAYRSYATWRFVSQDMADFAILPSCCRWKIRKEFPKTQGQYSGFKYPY
In words: Inhibition of rat P2X7 receptor by ethidium bromide release assay.

The subject of series [9] is Liver microsomes. In words: Intrinsic clearance in human liver microsome. Format: ADME.
The test system of series [10] is Rattus norvegicus. In words: AUC in rat at 3 mg/kg, po for 1 hrs. Also on record: dose 3 mg/kg, route oral. To be noted: in vivo. The series is classed as ADME, organism-based, Plasma.
Series [11] deals with Brain. Kind of series: Drug level in rat brain at 50 mg/kg, po. The series is classed as ADME, organism-based. Set-up: dose 50 mg/kg, route oral. The settings on record: in vivo, read-out: Drug uptake.
Series [12] is described as follows: Blood clearance in rat at 1 mg/kg, iv for 1 hrs. Format: ADME, organism-based. Set-up: dose 1 mg/kg, route intravenous.
Series [13] in a line: Cmax in rat at 3 mg/kg, po for 1 hrs. Format: ADME, organism-based. Also on record: dose 3 mg/kg, route oral. To be noted: in vivo.
Series [14] can be described thus: Drug level in brain of rat chronic constriction injury model at 20 mg/kg, po bid for 8 days measured on last day. Also on record: dose 20 mg/kg, route oral. The series is classed as ADME, organism-based.
A short description of series [15]: Volume of distribution at steady state in rat at 1 mg/kg, iv for 1 hrs. The series is classed as ADME, organism-based. Also on record: dose 1 mg/kg, route intravenous. To be noted: in vivo, read-out: Vdss.
Series [16] can be described thus: Solubility of the compound. The series is classed as physicochemical.
A short description of series [17]: Drug level in plasma of rat chronic constriction injury model at 20 mg/kg, po bid for 8 days measured on last day. Format: ADME, organism-based. Also on record: dose 20 mg/kg, route oral.
Series [18] is described as follows: Tmax in rat at 3 mg/kg, po for 1 hrs. The series is classed as ADME, organism-based. Also on record: dose 3 mg/kg, route oral. To be noted: in vivo.
Series [19] deals with Plasma. Kind of series: Drug level in rat plasma at 50 mg/kg, po. The series is classed as ADME, organism-based. Also on record: dose 50 mg/kg, route oral. The settings on record: in vivo, read-out: Drug uptake.
Series [20] relates to Rattus norvegicus. Kind of series: Antiinflammatory activity in rat assessed as inhibition of FCA-induced hypersensitivity at 20 and 50 mg/kg, po bid for 5 days. The series is classed as functional, organism-based. Set-up: dose 50 mg/kg.

In the case of `CCN1C(=O)CC[C@H]1C(=O)NCc1ccccc1`, the half-maximal inhibitory concentration (IC50) in series [1] was less than 1000 nM.
The same measure, in the same setting: the result for `CC(C)CN1C(=O)CC[C@H]1C(=O)NCc1ccc(F)cc1Cl` reads 398 nM.
`CCN1C(=O)CC[C@H]1C(=O)NCc1ccc(F)cc1Cl` had an IC50 in [1] of 31.6 nM. In addition, the CL in series [2] was less than 0.5 mL/min/g.
As for `O=C(NCc1ccc(F)cc1Cl)[C@@H]1CCC(=O)N1C1CCCC1`, in [1], the IC50 is 501 nM.
`Cc1nn(-c2ccccc2)c(C)c1CC(=O)NCc1ccc(F)cc1Cl` yielded a logD in [3] of 3.4. In series [2], this compound had a CL of 46 mL/min/g.
Take `CCN1C(=O)CC[C@H]1C(=O)NCc1ccccc1C(F)(F)F`: the IC50 in series [1] was 631 nM.
The same measure, in the same setting: the value for `CCCN1C(=O)CC[C@H]1C(=O)NCc1ccc(F)cc1Cl` was 158 nM.
The same measure, in the same setting: the result for `CN1C(=O)CC[C@H]1C(=O)NCc1ccc(F)cc1Cl` reads 100 nM.
As for `CN1C(=O)CC[C@H]1C(=O)NCc1cccc(C(F)(F)F)c1Cl` [GSK1482160], the logD in [3] turned out to be 1.9. Besides, the outcome in [4] and in series [5] was Active. The values for the half-maximal inhibitory concentration (IC50) in series [1] and in [8] were 3.16 nM and 316 nM, respectively. The compound further came in with a bioavailability in series [6] of 65%. Further, the half-life in [7] is 90 min. Moreover, in [9], the CL was less than 0.5 mL/min/g. In series [10], this compound yielded an AUC of 73 kg·min/L. Moreover, the concentration in series [11] turned out to be 26.7 µM; in [19], 12.9 µM. In addition, the clearance in series [12] worked out at 9 mL/min/kg. Moreover, the peak concentration (Cmax) in series [13] was 2450 nM. Besides, the figures for the concentration at 192 h in [14] and in [17] were 3.36 µM and 5.91 µM, respectively. Besides, the Vd in series [15] was found to be 1.1 L/kg. Also, the solubility in series [16] turned out to be 970 µg/mL (≈ 2900 µM). In addition, the Tmax in [18] was determined as 1 h.
`CCN1C(=O)CC[C@H]1C(=O)NCC1CCCCC1`: the IC50 in series [1] is less than 1000 nM.
In [1], `O=C(NCc1ccc(F)cc1Cl)[C@@H]1CCC(=O)N1c1ccccc1` showed a concentration for half-maximal inhibition (IC50) of 794 nM.
Same read-out and setting: the result for `CN(Cc1ccc(Cl)cc1Cl)C(=O)[C@@H]1CCC(=O)N1C` reads less than 1000 nM; that for `CCN1C(=O)CC[C@H]1C(=O)NCc1cccc(C(F)(F)F)c1`, 100 nM; that for `CCN1CCC[C@H]1C(=O)NCc1ccc(F)cc1Cl`, less than 1000 nM.
With `CC(C)N1C(=O)CCC1C(=O)NCc1ccc(F)cc1Cl` (stereo not drawn), the log distribution coefficient (logD) in series [3] was 2.6. For the same compound, the IC50 in [1] was 316 nM; in [8], greater than 10000 nM.
In turn, `CN(C(=O)c1cc(Cl)c(=O)n(Cc2c(Cl)cccc2Cl)c1)c1ccccc1` gave a logD in series [3] of 4.4. For the same compound, the IC50 in [1] is 126 nM; in series [8], 316 nM. The compound further yielded a CL in [2] greater than 50 mL/min/g.
With `CCN1C(=O)CC[C@H]1C(=O)NCc1ccccc1OC`, the half-inhibitory concentration (IC50) in [1] is less than 1000 nM.
Take `O=C(NCc1ccc(F)cc1Cl)[C@@H]1CCC(=O)N1C1CCC1`: the CL in series [2] was found to be 2.3 mL/min/g.
Turning to `CC(C)N1C(=O)CC[C@H]1C(=O)NCc1ccc(F)cc1Cl`, the 50% inhibitory concentration (IC50) in series [1] was 100 nM; in series [8], 1580 nM.
In turn, `CCN1C(=O)CC[C@@H]1C(=O)NCc1ccc(F)cc1Cl` gave an IC50 in [1] of 158 nM.
Regarding `CC(=O)N1CCC[C@H]1C(=O)NCc1ccc(F)cc1Cl`, in [1], half-maximal inhibition (IC50) was put at 100 nM.
Compound `CCN1C(=O)CC[C@H]1C(=O)NCC12CC3CC(CC(C3)C1)C2` had an IC50 in series [1] of 79.4 nM.
Still for that read-out and setting: the result for `O=C1CC[C@@H](C(=O)NCc2ccc(F)cc2Cl)N1` reads less than 1000 nM.
The same measure, in the same setting: the value for `CCN1C(=O)CC[C@H]1C(=O)NCc1ccc(Cl)cc1` was 631 nM; that for `CCN1C(=O)CC[C@H]1C(=O)NCc1ccccc1Cl` was 631 nM.
As for `Cc1ccc(-c2cc(C(F)(F)F)nn2-c2ccc(S(N)(=O)=O)cc2)cc1`, the outcome in [20] was inactive.
In turn, `Cc1n[nH]c(C)c1CC(=O)NCc1ccc(Cl)cc1Cl` showed a log distribution coefficient (logD) in series [3] of 2.7. Moreover, in [2], the CL amounted to 1.3 mL/min/g.

What is called IC50 is the concentration at which inhibition is half-maximal. Low readings indicate greater potency in that assay, high ones weaker potency in that assay. For orientation: logD means the decadic logarithm of the distribution of all forms, ionised or not, between an organic phase and buffer at a given pH. Read a low logD as lower lipophilicity. One may read the bioavailability as dose-corrected exposure relative to a reference, in per cent. What is called half-life is the time needed for the level to fall by half in the phase considered. Broadly, the clearance is the volume of plasma or blood freed of the substance per unit of time. A low value points to inefficient removal. As usually defined, the Cmax is the peak of the concentration-time curve. What is called solubility is how much of the substance goes into solution per volume. The low end stands for a poorly soluble substance, the high end for a readily soluble substance. In general, Tmax refers to the time from dosing to the highest level.
